Experimental data: ChEMBL document CHEMBL5465560, “Selectivity Literature for EUbOPEN Chemogenomic Library” (2024)

Tests used:
[1] = target: cAMP-dependent protein kinase catalytic subunit beta (Homo sapiens) (UniProt P22694); assay: Selectivity interaction (KinomeScan (DiscoverX)) EUB0000092b PRKACB; conditions: at 10 µM
[2] = target: Serine/threonine-protein kinase VRK2 (Homo sapiens) (UniProt Q86Y07); assay: Selectivity interaction (KinomeScan (DiscoverX)) EUB0000655a VRK2; conditions: at 10 µM
Sequence of Serine/threonine-protein kinase VRK2 (Homo sapiens) (Q86Y07 whole entry): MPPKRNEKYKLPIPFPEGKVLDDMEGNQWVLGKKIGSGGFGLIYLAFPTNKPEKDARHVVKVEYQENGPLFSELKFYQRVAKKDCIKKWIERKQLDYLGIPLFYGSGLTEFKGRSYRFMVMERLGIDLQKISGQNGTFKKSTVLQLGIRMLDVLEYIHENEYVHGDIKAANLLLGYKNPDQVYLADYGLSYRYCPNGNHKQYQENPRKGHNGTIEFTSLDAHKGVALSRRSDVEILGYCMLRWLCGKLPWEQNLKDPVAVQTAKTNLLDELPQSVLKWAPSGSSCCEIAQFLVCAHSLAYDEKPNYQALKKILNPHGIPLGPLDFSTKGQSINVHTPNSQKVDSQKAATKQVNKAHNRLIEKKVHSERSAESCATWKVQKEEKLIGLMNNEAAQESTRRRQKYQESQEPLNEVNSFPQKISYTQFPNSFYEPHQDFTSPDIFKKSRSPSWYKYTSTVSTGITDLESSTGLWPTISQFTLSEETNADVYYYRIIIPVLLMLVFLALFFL

[3] = target: Serine/threonine-protein kinase Nek7 (Homo sapiens) (UniProt Q8TDX7); assay: Selectivity interaction (Kinase panel (KiNativ target engagement assay in Jurkat cells)) EUB0001635a NEK7; format: cell-based; conditions: Selectivity number of off-targets 0.0, Selectivity number of targets 233.0, Source Knowledge https://www.sciencedirect.com/science/article/pii/S2451945619300674?via%3Dihub, at 1 µM
Sequence of Serine/threonine-protein kinase Nek7 (Homo sapiens) (Q8TDX7 whole entry, looked up): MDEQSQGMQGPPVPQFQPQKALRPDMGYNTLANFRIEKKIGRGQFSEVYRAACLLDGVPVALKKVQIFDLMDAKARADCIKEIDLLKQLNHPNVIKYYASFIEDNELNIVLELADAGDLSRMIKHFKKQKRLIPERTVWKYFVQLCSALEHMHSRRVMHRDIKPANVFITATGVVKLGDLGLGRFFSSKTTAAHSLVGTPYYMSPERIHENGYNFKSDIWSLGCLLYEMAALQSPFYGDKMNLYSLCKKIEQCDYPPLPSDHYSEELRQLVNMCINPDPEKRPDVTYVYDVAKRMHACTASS

[4] = target: T1, Mitogen-activated protein kinase kinase kinase 5 (Homo sapiens) (UniProt Q99683); assay: Selectivity interaction (Kinase panel (KiNativ target engagement assay in Jurkat cells)) EUB0001635a MAP3K5; format: cell-based; conditions: Selectivity number of off-targets 0.0, Selectivity number of targets 233.0, Source Knowledge https://www.sciencedirect.com/science/article/pii/S2451945619300674?via%3Dihub, at 1 µM
T1 sequence (whole entry): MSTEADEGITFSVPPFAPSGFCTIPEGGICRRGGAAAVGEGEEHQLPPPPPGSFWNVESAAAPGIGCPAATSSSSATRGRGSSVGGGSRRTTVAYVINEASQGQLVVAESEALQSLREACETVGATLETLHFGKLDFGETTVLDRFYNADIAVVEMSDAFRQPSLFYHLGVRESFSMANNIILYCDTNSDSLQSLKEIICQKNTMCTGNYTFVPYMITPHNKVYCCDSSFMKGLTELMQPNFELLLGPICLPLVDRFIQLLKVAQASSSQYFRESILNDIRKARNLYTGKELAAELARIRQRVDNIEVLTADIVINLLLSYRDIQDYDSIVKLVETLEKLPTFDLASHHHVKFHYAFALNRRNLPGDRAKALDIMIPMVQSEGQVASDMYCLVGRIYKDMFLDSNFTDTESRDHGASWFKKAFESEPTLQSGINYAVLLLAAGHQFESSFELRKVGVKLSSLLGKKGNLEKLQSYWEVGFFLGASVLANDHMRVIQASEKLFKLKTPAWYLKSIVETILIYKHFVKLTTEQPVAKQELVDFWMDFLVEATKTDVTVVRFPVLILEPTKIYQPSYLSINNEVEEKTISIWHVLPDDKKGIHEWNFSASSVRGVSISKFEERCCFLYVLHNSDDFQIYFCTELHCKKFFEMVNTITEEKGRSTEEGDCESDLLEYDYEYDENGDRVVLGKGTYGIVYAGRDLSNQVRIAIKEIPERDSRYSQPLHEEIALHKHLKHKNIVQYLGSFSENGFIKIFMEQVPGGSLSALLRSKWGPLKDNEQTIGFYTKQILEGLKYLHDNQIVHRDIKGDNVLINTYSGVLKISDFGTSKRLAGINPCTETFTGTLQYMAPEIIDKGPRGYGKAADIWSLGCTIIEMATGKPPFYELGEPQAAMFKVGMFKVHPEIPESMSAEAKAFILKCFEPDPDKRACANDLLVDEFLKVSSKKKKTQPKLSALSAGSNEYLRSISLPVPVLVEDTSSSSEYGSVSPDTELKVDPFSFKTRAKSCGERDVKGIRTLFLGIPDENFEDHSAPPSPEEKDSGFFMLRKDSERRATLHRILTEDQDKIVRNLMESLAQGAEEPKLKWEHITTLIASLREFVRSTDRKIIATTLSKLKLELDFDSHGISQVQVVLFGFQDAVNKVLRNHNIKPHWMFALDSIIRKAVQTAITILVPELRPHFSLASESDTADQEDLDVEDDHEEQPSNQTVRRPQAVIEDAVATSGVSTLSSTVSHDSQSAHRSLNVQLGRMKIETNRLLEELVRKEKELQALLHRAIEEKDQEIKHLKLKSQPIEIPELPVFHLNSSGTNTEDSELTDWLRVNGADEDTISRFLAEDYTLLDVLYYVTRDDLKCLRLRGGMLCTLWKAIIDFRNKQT

[5] = target: Phosphatidylinositol 4-kinase beta (Homo sapiens, UniProt Q9UBF8); conditions: at 10 µM
Sequence of Phosphatidylinositol 4-kinase beta (Q9UBF8 2-816 limits assumed): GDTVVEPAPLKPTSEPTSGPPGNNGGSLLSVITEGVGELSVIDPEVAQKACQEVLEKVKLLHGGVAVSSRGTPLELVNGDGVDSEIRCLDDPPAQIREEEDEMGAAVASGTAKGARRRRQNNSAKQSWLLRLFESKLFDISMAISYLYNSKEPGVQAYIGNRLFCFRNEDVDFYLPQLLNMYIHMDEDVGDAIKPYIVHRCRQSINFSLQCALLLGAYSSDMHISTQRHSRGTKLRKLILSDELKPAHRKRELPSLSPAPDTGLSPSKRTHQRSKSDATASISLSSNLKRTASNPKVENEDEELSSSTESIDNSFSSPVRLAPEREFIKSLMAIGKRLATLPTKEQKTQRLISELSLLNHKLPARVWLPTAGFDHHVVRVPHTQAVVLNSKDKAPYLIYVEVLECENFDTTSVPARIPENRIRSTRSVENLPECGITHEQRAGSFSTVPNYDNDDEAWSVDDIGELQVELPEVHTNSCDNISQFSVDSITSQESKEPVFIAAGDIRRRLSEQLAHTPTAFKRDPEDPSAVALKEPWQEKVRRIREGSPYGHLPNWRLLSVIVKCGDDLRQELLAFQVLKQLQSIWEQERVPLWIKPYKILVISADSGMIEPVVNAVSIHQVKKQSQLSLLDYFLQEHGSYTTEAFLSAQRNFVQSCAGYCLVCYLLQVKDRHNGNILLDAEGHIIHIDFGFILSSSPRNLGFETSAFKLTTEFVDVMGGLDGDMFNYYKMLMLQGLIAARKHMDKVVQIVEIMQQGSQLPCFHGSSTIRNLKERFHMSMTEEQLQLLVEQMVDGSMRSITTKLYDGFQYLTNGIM

[6] = target: Casein kinase II subunit alpha (Homo sapiens, UniProt P68400); assay: Selectivity interaction (Kinase panel (Z-LYTE Assay)) EUB0001632a CSNK2A1; conditions: at 10 µM
Sequence of Casein kinase II subunit alpha (P68400 whole entry, looked up): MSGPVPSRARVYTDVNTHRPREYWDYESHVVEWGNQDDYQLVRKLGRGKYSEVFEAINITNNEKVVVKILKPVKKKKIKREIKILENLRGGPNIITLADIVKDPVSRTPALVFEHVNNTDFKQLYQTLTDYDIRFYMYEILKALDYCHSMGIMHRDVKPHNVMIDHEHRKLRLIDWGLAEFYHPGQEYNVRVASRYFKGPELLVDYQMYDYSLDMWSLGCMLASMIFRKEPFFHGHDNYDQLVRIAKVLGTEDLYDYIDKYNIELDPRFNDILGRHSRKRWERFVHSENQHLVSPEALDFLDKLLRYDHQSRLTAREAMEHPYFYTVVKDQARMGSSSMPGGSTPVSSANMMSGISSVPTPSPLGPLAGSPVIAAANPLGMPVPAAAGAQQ

[7] = target: Serine/threonine-protein kinase PAK 6 (Homo sapiens) (UniProt Q9NQU5); assay: Selectivity interaction (Kinase panel (Invitrogen)) EUB0000639a PAK6; conditions: at 200 nM
Sequence of Serine/threonine-protein kinase PAK 6 (Homo sapiens) (Q9NQU5 whole entry, looked up): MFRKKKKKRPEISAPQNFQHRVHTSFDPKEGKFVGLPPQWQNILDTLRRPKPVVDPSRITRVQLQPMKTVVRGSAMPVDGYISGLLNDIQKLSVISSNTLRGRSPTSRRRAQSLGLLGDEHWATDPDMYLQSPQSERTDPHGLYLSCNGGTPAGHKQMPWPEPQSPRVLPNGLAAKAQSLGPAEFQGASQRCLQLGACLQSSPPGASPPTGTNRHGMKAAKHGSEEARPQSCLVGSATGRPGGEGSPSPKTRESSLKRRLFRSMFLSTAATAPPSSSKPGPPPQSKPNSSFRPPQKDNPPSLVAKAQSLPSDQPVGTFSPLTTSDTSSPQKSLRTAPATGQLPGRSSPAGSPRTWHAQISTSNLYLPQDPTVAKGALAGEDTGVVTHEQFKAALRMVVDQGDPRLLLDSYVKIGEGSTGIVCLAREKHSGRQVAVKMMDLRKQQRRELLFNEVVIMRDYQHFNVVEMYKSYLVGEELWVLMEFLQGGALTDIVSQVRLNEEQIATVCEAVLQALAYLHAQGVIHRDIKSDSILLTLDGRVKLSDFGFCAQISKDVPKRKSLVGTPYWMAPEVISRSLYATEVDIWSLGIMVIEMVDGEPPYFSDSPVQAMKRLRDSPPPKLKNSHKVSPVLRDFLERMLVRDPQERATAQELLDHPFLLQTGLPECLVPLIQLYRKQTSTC

[8] = target: Fibroblast growth factor receptor 2 (Homo sapiens) (UniProt P21802); assay: Selectivity interaction (SelectScreen profiling (Invitrogen)) EUB0000607a FGFR2; conditions: at 2 µM
Sequence of Fibroblast growth factor receptor 2 (Homo sapiens) (P21802 22-821 limits assumed): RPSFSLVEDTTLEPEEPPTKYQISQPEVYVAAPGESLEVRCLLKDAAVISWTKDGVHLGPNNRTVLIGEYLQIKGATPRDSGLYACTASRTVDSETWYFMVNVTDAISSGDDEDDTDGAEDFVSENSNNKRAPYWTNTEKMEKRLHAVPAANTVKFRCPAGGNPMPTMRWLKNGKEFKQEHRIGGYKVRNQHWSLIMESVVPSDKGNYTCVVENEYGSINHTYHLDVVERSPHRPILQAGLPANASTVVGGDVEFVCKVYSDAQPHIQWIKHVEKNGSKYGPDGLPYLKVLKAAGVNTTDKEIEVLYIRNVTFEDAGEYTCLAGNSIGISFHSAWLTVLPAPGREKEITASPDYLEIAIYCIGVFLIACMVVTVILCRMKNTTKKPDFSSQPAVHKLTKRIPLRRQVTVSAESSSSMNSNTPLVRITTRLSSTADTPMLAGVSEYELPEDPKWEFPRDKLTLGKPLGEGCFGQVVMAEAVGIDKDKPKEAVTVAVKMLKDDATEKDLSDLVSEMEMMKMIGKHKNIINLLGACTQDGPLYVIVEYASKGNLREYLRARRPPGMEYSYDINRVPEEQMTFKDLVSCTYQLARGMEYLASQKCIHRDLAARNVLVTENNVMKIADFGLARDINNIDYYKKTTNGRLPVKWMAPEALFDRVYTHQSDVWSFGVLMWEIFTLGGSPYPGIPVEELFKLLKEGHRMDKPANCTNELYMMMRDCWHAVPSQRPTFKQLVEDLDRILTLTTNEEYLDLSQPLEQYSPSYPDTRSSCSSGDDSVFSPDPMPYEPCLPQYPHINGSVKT

[9] = target: cGMP-inhibited 3',5'-cyclic phosphodiesterase 3A (Homo sapiens, UniProt Q14432); assay: Selectivity interaction (Panel of non-epigenetic targets (kinases, GPCRs, ion channels, and transporters, Eurofins) ) EUB0000271b PDE3A; conditions: at 1 µM
Sequence of cGMP-inhibited 3',5'-cyclic phosphodiesterase 3A (Q14432 whole entry): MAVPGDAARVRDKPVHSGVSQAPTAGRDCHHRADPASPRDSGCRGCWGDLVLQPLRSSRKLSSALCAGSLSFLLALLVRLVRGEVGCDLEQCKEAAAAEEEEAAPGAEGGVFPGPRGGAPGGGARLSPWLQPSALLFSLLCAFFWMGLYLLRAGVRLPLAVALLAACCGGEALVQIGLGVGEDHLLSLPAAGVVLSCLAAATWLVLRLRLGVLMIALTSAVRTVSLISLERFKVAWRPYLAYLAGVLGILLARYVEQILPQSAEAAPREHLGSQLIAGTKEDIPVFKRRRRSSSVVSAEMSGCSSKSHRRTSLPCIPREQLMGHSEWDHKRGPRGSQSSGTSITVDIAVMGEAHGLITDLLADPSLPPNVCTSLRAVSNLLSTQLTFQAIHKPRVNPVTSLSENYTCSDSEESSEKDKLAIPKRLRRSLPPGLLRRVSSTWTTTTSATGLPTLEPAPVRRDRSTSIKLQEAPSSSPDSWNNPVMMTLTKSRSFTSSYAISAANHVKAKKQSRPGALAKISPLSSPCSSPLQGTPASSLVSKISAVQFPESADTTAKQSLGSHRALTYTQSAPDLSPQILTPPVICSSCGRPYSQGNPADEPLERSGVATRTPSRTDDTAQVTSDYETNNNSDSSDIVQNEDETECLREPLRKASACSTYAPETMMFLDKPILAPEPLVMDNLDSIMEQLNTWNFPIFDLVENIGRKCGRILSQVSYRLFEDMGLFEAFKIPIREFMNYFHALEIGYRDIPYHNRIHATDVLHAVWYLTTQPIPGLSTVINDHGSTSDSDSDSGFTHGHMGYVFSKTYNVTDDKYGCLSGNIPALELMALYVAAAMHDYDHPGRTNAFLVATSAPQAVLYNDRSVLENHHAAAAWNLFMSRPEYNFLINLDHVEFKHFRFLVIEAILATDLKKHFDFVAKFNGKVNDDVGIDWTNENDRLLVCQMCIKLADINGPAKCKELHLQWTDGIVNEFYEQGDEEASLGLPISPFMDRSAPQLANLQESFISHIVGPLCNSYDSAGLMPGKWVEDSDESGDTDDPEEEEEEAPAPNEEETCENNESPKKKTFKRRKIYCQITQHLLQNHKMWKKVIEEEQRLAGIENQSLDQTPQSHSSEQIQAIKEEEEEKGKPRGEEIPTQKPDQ

[10] = target: STE20/SPS1-related proline-alanine-rich protein kinase (Homo sapiens) (UniProt Q9UEW8); assay: Selectivity interaction (KinomeScan (DiscoverX)) EUB0000595a STK39; conditions: at 10 µM
[11] = target: T2, Atypical kinase COQ8B, mitochondrial (Homo sapiens) (UniProt Q96D53); assay: Selectivity interaction (KinomeScan (DiscoverX)) EUB0000045b ADCK4
T2 sequence (whole entry): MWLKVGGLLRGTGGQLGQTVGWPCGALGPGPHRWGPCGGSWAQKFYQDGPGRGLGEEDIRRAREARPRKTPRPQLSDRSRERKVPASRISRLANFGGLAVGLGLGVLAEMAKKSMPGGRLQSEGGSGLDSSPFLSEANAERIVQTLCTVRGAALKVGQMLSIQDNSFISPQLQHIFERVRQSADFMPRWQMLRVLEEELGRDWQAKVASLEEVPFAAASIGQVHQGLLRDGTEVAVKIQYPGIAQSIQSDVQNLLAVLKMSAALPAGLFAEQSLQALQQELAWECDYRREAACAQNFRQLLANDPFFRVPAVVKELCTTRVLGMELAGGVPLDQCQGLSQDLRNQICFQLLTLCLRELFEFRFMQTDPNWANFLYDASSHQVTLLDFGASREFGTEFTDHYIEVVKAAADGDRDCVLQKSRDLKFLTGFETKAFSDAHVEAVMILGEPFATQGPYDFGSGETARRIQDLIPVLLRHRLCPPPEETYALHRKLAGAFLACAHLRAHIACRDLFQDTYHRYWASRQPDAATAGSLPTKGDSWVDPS

CCC(=O)N1CCN(c2ccc(-n3c(=O)ccc4cnc5ccc(-c6cnc7ccccc7c6)cc5c43)cc2C(F)(F)F)CC1
% of control [1]: 100%

CN(C)CCOc1ccc(-c2nc(-c3ccncc3)c(-c3ccc4c(c3)CC/C4=N\O)[nH]2)cc1
% of control [2]: 94%

C=CC(=O)Nc1ccc(C(=O)Nc2[nH]nc3c2CN(C(=O)N[C@H](CN(C)C)c2ccccc2)C3(C)C)cc1
% of engagement [3]: -12.5%
% of engagement [4]: 3.6%

Cc1cc([C@@H](C)Nc2ccccc2C(=O)O)c2nc(N3CCOCC3)cc(=O)n2c1 [AZD-6482]
% of control [5]: 100%

Cn1cc(-n2cnc3c(NCc4nc5cc(Cl)c(Cl)cc5[nH]4)nc(N4CCOCC4)nc32)cn1
% of control [6]: -3.76%

CC[C@@H]1[C@H](F)C(=O)N[C@@H]1COc1nccc2cc(C(N)=O)c(OC)cc12 [ZIMLOVISERTIB]
% of inhibition [7]: 5.16%

CNC(=O)Nc1ccc(-c2nc(N3CC4CCC(C3)O4)c3cnn(C4CCC5(CC4)OCCO5)c3n2)cc1
% of inhibition [8]: 4%

Cc1cc(C)cc([C@@H]2c3cc(C)ccc3NC(=O)CN2C(=O)c2ccc(Br)s2)c1
% of inhibition [9]: -11%

COCC(=O)NC/C=C/c1ccc2ncnc(Nc3ccc(Oc4ccc(C)nc4)c(C)c3)c2c1 [CP-724714]
% of control [10]: 100%

C=CC(=O)Nc1cc(-n2c(=O)ccc3cnc4ccc(-c5ccc(NS(C)(=O)=O)cc5)cc4c32)ccc1C
% of control ([11]; at 1 µM): 100%
% of control ([11]; at 10 µM): 64%
